In experiment [1] the test system is COVID-19 patients. As to conditions: anticoagulant treatment, reference 49; cited from earlier work.
Experiment [2] relates to human pulmonary microvascular endothelial cells (hPMVEC). As to the kind of experiment: Basal intracellular nitric oxide production in hPMVEC (DAF-FM fluorescence) after hyaluronidase treatment.
Experimental: Isolation and culture of human pulmonary microvascular endothelial cells (hPMVEC): hPMVEC were isolated from resected human lung as previously described (35, 36). Briefly, human peripheral lung tissue was finely minced, and digested in 0.3% type II collagenase at 37° C. The digested suspension was filtered, centrifuged, and washed in PBS. Endothelial cells were then isolated using magnetic Dynabeads coated with anti-human CD31 antibody. Isolated cells were resuspended in EGM-2 (Lonza #CC-3162) with 10% fetal bovine serum and placed at 37° C. in 5% CO2 until 50% confluent, then harvested and re-purified using anti-CD31-coated magnetic microbeads as above. PMVEC were propagated in EGM-2+10% FBS and 20 mM HEPES on fibronectin-coated flasks and passages 4-9 used.
Hyaluronidase treatment of hPMVEC: PMVEC (2.5×10^4/well) were plated on fibronectin-coated 4-well plates in EGM-2+10% FBS and 20 mM HEPES. After 2 days, media was changed to HBSS (+100 mM HEPES, no bicarb)+0.01% BSA and hPMVEC were treated for 1 h with hyaluronidase (0.5 mg/mL; Sigma #H3506). Following treatment, hPMVEC were loaded with a nitric oxide-sensitive fluorochrome (2 μM DAF-FM DA (Thermo Fisher #D23844) for 1h before lysing with 0.5% SDS in PBS. After centrifugation for 10 min at 1×10^4RCF, the fluorescence of triplicate aliquots of supernatant were measured using a Victor3 multilabel fluorescence microplate reader (Wallac Oy; Perkin Elmer, Inc.) at 485/520 for DAF-FM. The nitric oxide donor DETA NONOate (20 μM; Cayman #82120) was used as the positive control.

On to low molecular weight heparin, for which the overall survival advantage entry in experiment [1] was “did not confer an overall survival advantage”. In the case of `NCCN(CCN)/[N+]([O-])=N/O` [DETA NONOate], the “increase of nitric oxide production” value in experiment [2] (positive control at 20 μM, compared to untreated controls (data not shown)) was 16%.

As for Hyaluronidase, the “decrease of basal intracellular nitric oxide production” value in experiment [2] (hyaluronidase 0.5 mg/mL for 1 h, compared to untreated PMVEC, n=5 separate experiments, P=0.008) worked out at 98%. In addition, in experiment [2] (hyaluronidase 0.5 mg/mL for 1 h, n=5 separate experiments), the “basal intracellular nitric oxide production after treatment (DAF-FM fluorescence)” value is on record as 64±87.5 RFUs.

Source of the values: US20230152317A1, “DIAGNOSIS AND TREATMENT OF COVID-19” (priority 2020, published 2023).
